In assay [1] the target is T1, NAD-dependent protein deacetylase sirtuin-1 (Homo sapiens) (UniProt Q96EB6).
T1 sequence (whole entry): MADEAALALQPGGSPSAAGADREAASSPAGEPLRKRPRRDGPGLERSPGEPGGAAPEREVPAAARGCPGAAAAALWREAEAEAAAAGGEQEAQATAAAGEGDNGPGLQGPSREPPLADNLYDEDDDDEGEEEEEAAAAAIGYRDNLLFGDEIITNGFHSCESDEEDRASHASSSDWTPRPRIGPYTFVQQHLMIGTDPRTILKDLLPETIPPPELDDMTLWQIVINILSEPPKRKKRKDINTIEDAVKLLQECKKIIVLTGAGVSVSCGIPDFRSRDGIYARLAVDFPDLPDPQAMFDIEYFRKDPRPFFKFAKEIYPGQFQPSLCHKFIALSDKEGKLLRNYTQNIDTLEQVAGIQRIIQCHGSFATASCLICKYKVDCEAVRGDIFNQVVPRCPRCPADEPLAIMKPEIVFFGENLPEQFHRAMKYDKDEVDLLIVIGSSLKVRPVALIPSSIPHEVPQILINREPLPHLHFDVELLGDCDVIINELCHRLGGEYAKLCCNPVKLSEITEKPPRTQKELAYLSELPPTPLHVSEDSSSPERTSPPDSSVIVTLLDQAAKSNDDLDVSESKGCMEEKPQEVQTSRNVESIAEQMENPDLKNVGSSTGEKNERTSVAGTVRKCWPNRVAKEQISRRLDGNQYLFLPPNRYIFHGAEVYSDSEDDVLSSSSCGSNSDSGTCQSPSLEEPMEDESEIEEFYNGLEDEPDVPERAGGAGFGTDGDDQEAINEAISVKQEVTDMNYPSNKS
As to the kind of experiment: Activation of full-length GST-tagged recombinant human SIRT1 assessed as enzyme activity obtained with subtraction of intrinsic fluorescence using p53-based untagged peptide as substrate at 50 uM after 30 mins by SIRTainty assay.

Assay [2] addresses T1, NAD-dependent protein deacetylase sirtuin-1 (Homo sapiens). Briefly: Activation of full-length GST-tagged recombinant human SIRT1 assessed as enzyme activity obtained without subtraction of intrinsic fluorescence using p53-based untagged peptide as substrate at 50 uM after 30 mins by SIRTainty assay.

We go through 28 compounds from ChEMBL document CHEMBL4428023, “1,4-Dihydropyridines Active on the SIRT1/AMPK Pathway Ameliorate Skin Repair and Mitochondrial Function and Exhibit Inhibition of Proliferation in Cancer Cells” (J Med Chem, 2016).

Take `CCOC(=O)C1=CN(C(=O)c2cnccn2)C=C(C(=O)OCC)C1c1ccccc1`: the Activity was 171% in assay [1] and 242% in assay [2].

For the compound `NC(=O)C1=CN(Cc2ccccc2)C=C(C(N)=O)C1c1cccs1`, the Activity in assay [1] came to 49%; in assay [2], 55%. As for `CCOC(=O)C1=CN(C(=O)c2cccc3ccccc23)C=C(C(=O)OCC)C1c1ccccc1`, the Activity in assay [2] is 179%. Take `CCOC(=O)C1=CN(C(=O)c2ccccc2)C=C(C(=O)OCC)C1c1cccc(Cl)c1`: the values for the Activity in assay [1] and in assay [2] were 127% and 163%, respectively. On the same counts, the results for `NC(=O)C1=CN(Cc2ccccc2)C=C(C(N)=O)C1c1cncs1` are 165% and 194%. On the same counts, the results for `CCOC(=O)C1=CN(C(=O)OCc2ccccc2)C=C(C(=O)OCC)C1c1ccccc1` are 158% and 206%.

Take `CC1=C(C(N)=O)C(c2ccccc2)C(C(N)=O)=C(C)N1Cc1ccccc1`: the Activity in assay [1] and in assay [2] was 110% throughout. In the case of `O=C(O)C1=CN(Cc2ccccc2)C=C(C(=O)O)C1c1ccsc1`, the values for the Activity in assay [1] and in assay [2] were 45% and 56%, respectively.

As to `CCOC(=O)C1=CN(C(=O)c2ccccc2)C=C(C(=O)OCC)C1c1ccc(Cl)cc1`, the values for the Activity in assay [1] and in assay [2] were 191% and 231%, respectively. Take `NC(=O)C1=CN(Cc2ccccc2)C=C(C(N)=O)C1c1cnc2ccccc2c1`: the Activity turned out to be 147% in assay [1] and 197% in assay [2].

With `CCOC(=O)C1=CN(Cc2ccccc2)C=C(C(=O)OCC)C1c1cccc2ccccc12`, the Activity in assay [2] came out at 187%. Consider `O=C(O)C1=CN(Cc2ccccc2)C=C(C(=O)O)C1c1cncs1`, for which the Activity was 128% in assay [1] and 172% in assay [2]. The corresponding values for `NC(=O)C1=CN(Cc2ccccc2)C=C(C(N)=O)C1c1ccc2ccccc2c1` are 67% and 128%.

Turning to `NC(=O)C1=CN(Cc2ccccc2)C=C(C(N)=O)C1c1ccsc1`, the Activity in assay [1] was found to be 97%; in assay [2] it was 218%. In the case of `CCOC(=O)C1=CN(C(=O)c2ccccc2)C=C(C(=O)OCC)C1c1ccccc1OC`, the Activity in assay [1] was found to be 127%; in assay [2] it was 170%. For the compound `O=C(O)C1=CN(Cc2ccccc2)C=C(C(=O)O)C1c1ccc2ccccc2c1`, the Activity in assay [2] is 116%. `O=C(O)C1=CN(Cc2ccccc2)C=C(C(=O)O)C1c1cnc2ccccc2c1`: the Activity in assay [1] turned out to be 167%; in assay [2] it was 209%.

As to `O=C(O)C1=CN(Cc2ccccc2)C=C(C(=O)O)C1c1cc2ccccc2s1`, the Activity in assay [1] was determined as 7%; in assay [2], 38%.

`NC(=O)C1=CN(Cc2ccccc2)C=C(C(N)=O)C1c1nccs1`: the figures for the Activity in assay [1] and in assay [2] were 188% and 231%, respectively. The corresponding values for `CCOC(=O)C1=CN(S(=O)(=O)c2ccccc2)C=C(C(=O)OCC)C1c1ccccc1` are 130% and 169%.

For the compound `NC(=O)C1=CN(Cc2ccccc2)C=C(C(N)=O)C1c1ccc(-c2ccccc2)cc1`, in assay [2], the Activity came to 96%. Turning to `O=C(O)C1=CN(Cc2ccccc2)C=C(C(=O)O)C1c1cccc2ccccc12`, the Activity worked out at 94% in assay [1] and 108% in assay [2]. The corresponding values for `CCOC(=O)C1=CN(Cc2ccccc2)C=C(C(=O)OCC)C1c1cncs1` are 133% and 221%.

With `CCOC(=O)C1=CN(C(=O)c2ccccc2)C=C(C(=O)OCC)C1c1cccc(C)c1`, the results for the Activity in assay [1] and in assay [2] were 140% and 186%, respectively.

Regarding `CCOC(=O)C1=CN(Cc2ccccc2)C=C(C(=O)OCC)C1c1cccs1`, the figures for the Activity in assay [1] and in assay [2] were 117% and 246%, respectively. For the compound `NC(=O)C1=CN(Cc2ccccc2)C=C(C(N)=O)C1c1cccc2ccccc12`, in assay [2], the Activity turned out to be 145%. Take `NC(=O)C1=CN(Cc2ccccc2)C=C(C(=O)O)C1c1ccccc1` (stereo not given): the Activity was 160% in assay [1] and 149% in assay [2].

As for `O=C(Nc1ccccc1-c1cn2c(CN3CCNCC3)csc2n1)c1cnc2ccccc2n1`, the Activity in assay [2] worked out at 209%.
